Literature values as cited in patent US20160051485A1, “Biodegradable Bionanoparticles for Releasing the GSE24-2 Peptide, Method for the Production Thereof, and Use of Same” (CONSEJO SUPERIOR DE INVESTIGACIONES (CSIC), priority 2013, published 2016).

Test system: F9A353V cells
Details: transfection of the peptide using a lipid compound; previous experiments

## GSE24.2: fragment of 55 amino acids of the internal domain of dyskerin (TRUB domains), activating telomerase (GFINLDKPSNPSSHEVVAWIRRILRVEKTGHSGTLDPKVTGCLIVCIERATRLVK; listed as Homo sapiens)
  Signal of the histone H2AX: reduces the signal of the histone H2AX
